Measured values taken from patent US20080207502A1, “Anti-Angiogenic Peptides and Methods of Use Thereof” (SOPHERION THERAPEUTICS, INC., priority 2004, published 2008).

Key:
[1] = Heparin binding activity by liquid chromatography on Hi Trap Heparin HP column (NaCl elution); conditions: step gradient 500-1000 mM NaCl in 10 mM NaH2PO4 pH 7
From the text: Liquid chromatography was used to determine the relative levels of heparin binding activity of the individual heparin binding domains and of the anti-angiogenic miniproteins that contains them. In this assay, the strength of the heparin binding activity is proportional to the amount of NaCl that is required to elute the peptide bound to the heparin column. Peptides with low binding activity are eluted with lower NaCl concentration, whereas higher concentrations of NaCl are required for peptides with higher binding activity.
Hi Trap Heparin HP column (1 ml, Amersham Biosciences) was equilibrated with 10 column volumes (CV) of equilibration (EQ) buffer=10 mM NaH2PO4pH 7. All buffers were loaded onto columns via syringes. 500 μl fractions are collected (flow rate=1 ml/minute). 500 μg of peptide (1 mg/ml, resuspended in EQ buffer) was added to each column and the flow through was collected for analysis. The columns were then washed with 3 CV of EQ buffer. Peptides are then eluted with a step gradient of 500, 625, 750, 875 mM NaCl in EQ buffer, 2 CV per each step. A final step of 3 CV of 1000 mM NaCl in EQ buffer was collected in 500 μl fractions. The A210 nm was measured using EQ and elution buffers as blanks.

[2] = tested on: Human Umbilical Vein Endothelial Cells; assay: bFGF-mediated survival/proliferation of human umbilical vein endothelial cells (WST1); format: cell-based; conditions: for inhibition of bFGF mediated survival: comparison of several peptides, FIG. 10; for potency in blocking bFGF stimulation: compared with ST100,068, FIG. 6
Description: (§1) The anti-angiogenic activities of the peptides were tested by measuring the level of inhibition of VEGF and bFGF mediated survival/proliferation of Bovine Retinal Endothelial Cells (BRE), Human Dermal Microvasculature Endothelial Cells, and Human Umbilical Vein Endothelial Cells, all of which are standard cell lines used to test anti-angiogenic compounds.
Human umbilical cord endothelial (HUVEC) cells were maintained in Cambrex EGM-2MV media. On day one, cells were starved overnight in 1% FBS in M200 media (Cascade Biologicals). The morning after, the media were replaced with serum-free media (control) or media containing 25 ng/ml of human VEGF165 and the various peptides to final concentrations as described.
(§2) In all cases, after 72 hours incubation, the amount of live cells in each well was measured with the WST1 assay (Roche).

L1210 murine leukemia = L1210 murine leukemia intravenous model in vivo; parameters: species or system mouse; conditions: dosed IP, DBA/2 mice, FIG. 15a
Description: Antitumor activity of test peptides, administered intraperitoneally (IP), were evaluated against L1210 murine leukemia cells implanted intravenously (IV) in DBA/2 mice.
Studies generally consisted of randomly-assigned groups of 8 mice per group, which were inoculated IV with 1×10^5 cells per mouse from an in vivo leukemia cell line. In addition to groups tested with test peptides, studies usually included a vehicle-treated control group and a positive control group treated with an agent known to be active in the L1210 leukemia model. Starting one day after tumor inoculation (inoculation day defined as Day 0), mice were treated IP with either vehicle or test peptides in various schedules. Generally this consisted of treatment every other day for approximately 1 week (e.g., Days 1, 3, 5 and 7). A positive agent (e.g., cyclophosphamide) was usually given as a single IP injection on Day 1. All dosing solutions were prepared on each day of treatment. Survival was monitored daily and body weights were measured twice weekly. Anti-tumor activity was assessed by the increase in lifespan of the treated groups in comparison to the vehicle-treated control group. Studies with the L1210 leukemia model were limited to 30 days.

[3] = tested on: binding of radiolabeled VEGF to endothelial cells; assay: Inhibition of binding of radiolabeled VEGF to endothelial cells; conditions: concentration of 30 μM; for inhibition of VEGF binding: FIG. 7; for VEGF binding inhibition: legend of FIG. 7
From the text: The activity of the peptides SEQ ID NO.: 1 and SEQ ID NO.: 2 in blocking the binding of radiolabeled VEGF to endothelial cells is shown in FIG. 7.

[4] = tested on: mouse leukemia L1210 cells; assay: Tumor cell proliferation (WST-1), L1210; format: cell-based; conditions: FIG. 11
Description: Peptides to be tested were prepared at a stock concentration of 10 mM in sterile phosphate buffered saline. Cancer cell lines obtained from the American Type Culture Collection (MG-63, HT1080, A498, BxPC3, 786-0, PC-3, B16F1, B16F10, P388D1, Jurkat, MOLT4, THP-1, U-937, L1210, RPMI 8226, NCI H929, U266B1, K562) were cultured under appropriate conditions as described in the literature. Cell culture media and reagents were obtained from ATCC (Manassas, Va.), Invitrogen (Carlsbad, Calif.) or Mediatech (Herndon, Va.). Exponentially growing cultures were used for cell proliferation assays. Adherent cells were plated at a concentration of 100000 cells per milliter in growth media overnight (18-24 h) and treated the next day in a low serum media (growth media with 1% FBS for MG-63, HT1080, A498, BxPC3, PC-3, B16F1, B16F10. 786-0 cells were treated in media with 5% FBS). Suspension cell lines (P388D1, Jurkat, MOLT4, THP-1, U-937, L1210, RPMI 8226, NCI H929, U266B1, and K562) were diluted to a concentration of 100,000 cells per ml and treated on the same day with peptides. Peptides were diluted in treatment media and cells were treated for 48 or 72 hours depending on the cell line. Each dose was tested in triplicate for each experiment, and experiments were repeated for a minimum of three discrete times. After incubation, the relative number of cells was determined using WST-1 (Roche Applied Science). A 9.5 μl aliquot of WST-1 was added to each well. The plate was immediately read at 440 nm using a Bio-Tek PowerWave XS microplate reader, incubated for 2-3 hours at 37° C. and then read again. Cell proliferation was determined as the percent of the control cell proliferation. The absorbance of each well at time 0 was subtracted from the value of the final reading. Afterwards the blank values were averaged and subtracted from each test and control value. Finally, each test absorbance was divided by the average of the control absorbances and multiplied by 100 to obtain the percent of control. […]

B16 melanoma tumor = assay: Subcutaneous B16 melanoma tumor model in vivo; parameters: species or system mouse; conditions: vs untreated controls
Description: Because of the importance of the angiogenic process for tumorigenesis, miniproteins as described herein, were hypothesized to show good anti-tumor activity. The peptides of the invention were tested in an in vivo model of anti-tumor activity. This model compares the growth of sub cutaneous B16 melanoma tumor in vivo either untreated or treated with various amount of miniproteins described in this application. This model is widely accepted in the art as a model to test the anti-tumor activity of compounds that inhibit tumor growth because they have anti-angiogenic activity.
Male C57BL/6 mice were obtained with a mean body weight of 20±2 g. Mouse B16-F1 melanoma cells were implanted subcutaneously (5×10^5 cell per animal). Peptides (formulated in water) were administered ip daily at the amount indicated starting the day after cells injection. In general, tumors became palpable around 9 days after injection of cells. Tumor were then measured every 2 days.

[5] = tested on: Bovine Retinal Endothelial Cells (BRE); assay: VEGF-mediated survival/proliferation of BRE cells (WST1); format: cell-based
Description: as §1
Bovine retinal endothelial (BRE) cells were maintained in Cambrex EG2 media. For non-adherent cell assays, on day one cells were starved for either 6 hours or overnight, then trypsinized and plated in 96-well plates in 100 μl of Optimem plus 1% fetal bovine serum (FBS). One hundred μl of Optimem plus 1% FBS was added to the wells containing, where appropriate, VEGF to a final concentration of 25 ng/ml, and the various peptides to final concentrations as described. For adherent cells, cells were plated in 96-well plates in complete media, allowed to adhere overnight, washed in starvation media (Optimem plus 1% FBS) and then starved during the day. At the end of the day, 100 μl of Optimem plus 1% FBS was added to the wells containing, where appropriate, VEGF to a final concentration of 25 ng/ml and the various peptides to final concentrations as described.
as §2

[6] = Biological activity of D-amino acid versions of ST100,038 (assay not specified); conditions: ST100,045 tested against ST100,059 and a control
Description: D-amino acid peptides can be made by generating a D-amino acid peptide with the same sequence as a L-amino acid peptide or by preparing a retro inverso form of a peptide. ST100,045 (SEQ ID NO.: 31) has the same sequence as ST100,038 (SEQ ID NO.: 29) was tested against ST100,059 (SEQ ID NO.: 30) which is the retro inverso version of ST100,038 and a control.

RRGRAAKKKRRGRAAKKKRLGYVVSDGRGDYP [ST100,074]
[NaCl] for elution [1]: 1000 mM
inhibition of bFGF mediated survival [2]: the most active in inhibiting bFGF stimulation
mice (cured mice) survived longer than 30 days (L1210 murine leukemia): Sixty to eighty percent
survival (L1210 murine leukemia): statistically significant increases in survival

PYAGRGDSVVYGLGGGPGAARGRRAARGRR [ST100,033]
inhibition of VEGF binding [3]: ~100%
VEGF binding inhibition [3]: completely abolished VEGF binding

RRGRAAKKKRRGRAAKKKPSQSSHPPLSTA (listed as Homo sapiens) [ST100,072]
[NaCl] for elution [1]: 1000 mM
potency in blocking bFGF stimulation [2]: more potent in blocking bFGF stimulation

RLGYVVSDGRGDYP (listed as Homo sapiens) [ST100,077]
blocked cell proliferation or induced cell death [4]: Neither

RAAKKRKRAAKKRARAAKKRLGYVVSDGRGDYP (RAAKKRARAAKKRARAAKKRLGYVVSDGRGDYP; listed as Homo sapiens) [ST100,079]
[NaCl] for elution [1]: 1000 mM

ATSLPPHSSQSPGGGPPAARGRRAARGRR (listed as Homo sapiens) [ST100,062]
inhibition of tumor growth (B16 melanoma tumor; 20 mg/kg daily IP, FIG. 12): clearly inhibit tumor growth

RRGRAARRGRAAKKKPSQSSHPPLSTA (listed as Homo sapiens) [ST100,068]
inhibition of tumor growth (B16 melanoma tumor; 20 mg/kg and 40 mg/kg daily IP, FIG. 13): able to inhibit tumor growth
potency in blocking VEGF stimulation ([5]; compared with ST100,059, FIG. 5): more potent in blocking VEGF stimulation
inhibition of VEGF stimulation ([5]; increasing doses, FIG. 5): inhibited with increasing doses

RRGRAAKKKRRGRAAKKK (listed as Homo sapiens) [ST100,082]
[NaCl] for elution [1]: 1000 mM

YDGRGDSVVYGLKKKAARGRRAARGRR [ST100,032]
inhibition of VEGF binding [3]: ~100%
VEGF binding inhibition [3]: completely abolished VEGF binding

RLGYVVSDGRGDYPKKKRRGRAARRGRAA [ST100,065]
[NaCl] for elution [1]: 750 mM
mice (cured mice) survived longer than 30 days (L1210 murine leukemia): Sixty to eighty percent
survival (L1210 murine leukemia): statistically significant increases in survival

RRGRAARRGRAAKKK (listed as Homo sapiens) [ST100,078]
blocked cell proliferation or induced cell death [4]: Neither
inhibition of bFGF mediated survival [2]: not as potent

RRGRAARRGRAARRGRAAKKKPSQSSHPPLSTA (listed as Homo sapiens) [ST100,073]
inhibition of tumor growth (B16 melanoma tumor; 20 mg/kg daily IP, FIG. 14): able to inhibit tumor growth
[NaCl] for elution [1]: 1000 mM
potency in blocking bFGF stimulation [2]: more potent in blocking bFGF stimulation
inhibition of bFGF mediated survival [2]: the most active in inhibiting bFGF stimulation

RKKAARARKKAARARKKAARRLGYVVSDGRGDYP (listed as Homo sapiens) [ST100,081]
[NaCl] for elution [1]: 1000 mM

ATSLPPHSSQSP (listed as Homo sapiens) [ST100,045]
biologically active [6]: Only the retro inverso form of ST100,038, (ST100,059; SEQ ID NO.: 30) was found to be biologically active

ATSLPPHSSQSP (listed as Homo sapiens) [ST100,038]
Concentrations that completely abolished the VEGF-induced increase in WST-1 value ([5]; VEGF 25 ng/ml, 72 hours, FIG. 4): above 40 μM

RKRAALRARKRAARARKRAARR (RKRAARARKRAARARKRAARR; listed as Homo sapiens) [ST100,083]
[NaCl] for elution [1]: 1100 mM
